The record followed here is US7087648B1, “Methods for modulating macrophage proliferation using polyamine analogs” (The Regents of the University of California, priority 1997, dated 2006).

The test system of the experiment is CD14^+ cells. The experiment is described as follows: In vitro dose response in NHL patient PBMC; total CD14^+ cell survival. The class given is cell-based, human. As to conditions: for EC50: Homo sapiens, PBMC, 120 h, read-out: ED50 (50% of cells killed); for EC50 / ED80 (80% of cells killed): 5 days of culture; for drug sensitivity in vitro: post in vivo DEHOP administration blood specimens. On the procedure: To test whether patient macrophages would respond to administration of DEHOP in vitro, CD14 cells in a peripheral blood mononuclear cell preparation (PBMC) were exposed to different concentrations of DEHOP and the proportion of CD14 positive cells surviving at the end of 5 days of culture was assessed in drug treated cells as compared to controls. Specimens obtained pre chemotherapy were compared to specimens obtained 2 weeks post therapy. […] For patient four, the first specimen was obtained one day after the first cycle of DEHOP; the second specimen was obtained one week later. The effective dose 50 (where 50% of cells were killed), and effective dose 80 (where 80% of cells were killed) were calculated for each set of patient specimens exposed to DEHOP in vitro.

Molecules are shown by their SMILES. Where two headings read alike, the source gives them in different places.

Regarding `CCNCCCCNCCCCNCCCCNCC` [DEHOP, 1,14-bis(ethylamino)-5,10-diazatetradecane], the EC50 by setting is: (patient one, Pre specimen) 10 µM; (patient three, Post specimen) 0.1 µM; (patient three, Pre specimen) 10 µM; (patient two, Post specimen) more than 10 µM; (patient two, Pre specimen) 1 µM. Besides, the “ED80 (80% of cells killed)” value is 0.1 µM (patient four, Post specimen); 1.0 µM (patient four, Pre specimen); more than 10 µM (patient one, Pre specimen); 0.8 µM (patient three, Post specimen); more than 10 µM (patient three, Pre specimen); more than 10 µM (patient two, Post specimen). Further, the “ED80 (80% of cells killed)” value (patient two, Pre specimen) is more than 10 µM. The “drug sensitivity in vitro” value is, setting by setting: (patient two) “persistently resistant to drug”; (patients) “marked drug sensitivity”.
